Measurements as given in patent US10039759B2, “Quinolines as FGFR kinase modulators” (priority 2011, dated 2018).
Where two headings read alike, the source gives them in different places.

Assays:
[1] = target: T1, Ba/F3-FGFR1-transfected cells (Homo sapiens, UniProt P11362, cells depend on it, form not given); test: Ba/F3-FGFR1 (minus IL3 or plus IL3) cellular proliferation assay, Alamar Blue; assay type: cell-based; settings: minus IL3, 24 hours
T1 construct: other: minus IL3; 24 hours, Alamar Blue
T1 sequence (P11362 whole entry, change not shown): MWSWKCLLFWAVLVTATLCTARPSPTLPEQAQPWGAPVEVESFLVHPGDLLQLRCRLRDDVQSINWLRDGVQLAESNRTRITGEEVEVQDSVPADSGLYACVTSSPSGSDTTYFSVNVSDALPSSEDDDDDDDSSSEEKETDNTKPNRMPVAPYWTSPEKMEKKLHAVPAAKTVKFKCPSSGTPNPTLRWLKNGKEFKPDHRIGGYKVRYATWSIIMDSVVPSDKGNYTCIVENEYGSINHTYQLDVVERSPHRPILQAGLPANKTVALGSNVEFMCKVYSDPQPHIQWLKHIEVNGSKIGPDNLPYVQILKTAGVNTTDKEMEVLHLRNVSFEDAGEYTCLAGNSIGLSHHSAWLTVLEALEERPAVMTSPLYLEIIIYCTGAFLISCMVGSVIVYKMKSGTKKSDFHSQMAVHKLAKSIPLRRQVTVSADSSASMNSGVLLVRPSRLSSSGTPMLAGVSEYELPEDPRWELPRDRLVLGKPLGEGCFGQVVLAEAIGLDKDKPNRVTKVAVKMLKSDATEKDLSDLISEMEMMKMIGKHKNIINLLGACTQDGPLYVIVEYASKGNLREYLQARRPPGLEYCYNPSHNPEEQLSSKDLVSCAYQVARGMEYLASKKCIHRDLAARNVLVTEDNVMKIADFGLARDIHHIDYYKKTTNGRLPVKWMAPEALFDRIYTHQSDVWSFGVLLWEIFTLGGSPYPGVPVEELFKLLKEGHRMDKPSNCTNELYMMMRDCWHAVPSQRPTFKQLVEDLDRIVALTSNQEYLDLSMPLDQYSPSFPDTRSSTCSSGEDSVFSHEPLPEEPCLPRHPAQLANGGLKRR
Outline: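 Ba/F3-FGFR1 cells (20000/well) were treated with compound (10 μM–0.1 nM) for 24 h at 37 °C. Alamar Blue was then added for 4 h, with fluorescence read at ex 540/em 590 nm to give IC50/pIC50. A counterscreen was run with 10 ng/ml murine IL3.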

KDR (h) = KDR (h) (Homo sapiens, UniProt P35968); test: KDR (VEGFR2) (enzymatic assay), TR-FRET; assay type: biochemical; settings: 120 min, pIC50 = -log IC50 (M), average if tested multiple times
Chain of KDR (h) (P35968 20-1356): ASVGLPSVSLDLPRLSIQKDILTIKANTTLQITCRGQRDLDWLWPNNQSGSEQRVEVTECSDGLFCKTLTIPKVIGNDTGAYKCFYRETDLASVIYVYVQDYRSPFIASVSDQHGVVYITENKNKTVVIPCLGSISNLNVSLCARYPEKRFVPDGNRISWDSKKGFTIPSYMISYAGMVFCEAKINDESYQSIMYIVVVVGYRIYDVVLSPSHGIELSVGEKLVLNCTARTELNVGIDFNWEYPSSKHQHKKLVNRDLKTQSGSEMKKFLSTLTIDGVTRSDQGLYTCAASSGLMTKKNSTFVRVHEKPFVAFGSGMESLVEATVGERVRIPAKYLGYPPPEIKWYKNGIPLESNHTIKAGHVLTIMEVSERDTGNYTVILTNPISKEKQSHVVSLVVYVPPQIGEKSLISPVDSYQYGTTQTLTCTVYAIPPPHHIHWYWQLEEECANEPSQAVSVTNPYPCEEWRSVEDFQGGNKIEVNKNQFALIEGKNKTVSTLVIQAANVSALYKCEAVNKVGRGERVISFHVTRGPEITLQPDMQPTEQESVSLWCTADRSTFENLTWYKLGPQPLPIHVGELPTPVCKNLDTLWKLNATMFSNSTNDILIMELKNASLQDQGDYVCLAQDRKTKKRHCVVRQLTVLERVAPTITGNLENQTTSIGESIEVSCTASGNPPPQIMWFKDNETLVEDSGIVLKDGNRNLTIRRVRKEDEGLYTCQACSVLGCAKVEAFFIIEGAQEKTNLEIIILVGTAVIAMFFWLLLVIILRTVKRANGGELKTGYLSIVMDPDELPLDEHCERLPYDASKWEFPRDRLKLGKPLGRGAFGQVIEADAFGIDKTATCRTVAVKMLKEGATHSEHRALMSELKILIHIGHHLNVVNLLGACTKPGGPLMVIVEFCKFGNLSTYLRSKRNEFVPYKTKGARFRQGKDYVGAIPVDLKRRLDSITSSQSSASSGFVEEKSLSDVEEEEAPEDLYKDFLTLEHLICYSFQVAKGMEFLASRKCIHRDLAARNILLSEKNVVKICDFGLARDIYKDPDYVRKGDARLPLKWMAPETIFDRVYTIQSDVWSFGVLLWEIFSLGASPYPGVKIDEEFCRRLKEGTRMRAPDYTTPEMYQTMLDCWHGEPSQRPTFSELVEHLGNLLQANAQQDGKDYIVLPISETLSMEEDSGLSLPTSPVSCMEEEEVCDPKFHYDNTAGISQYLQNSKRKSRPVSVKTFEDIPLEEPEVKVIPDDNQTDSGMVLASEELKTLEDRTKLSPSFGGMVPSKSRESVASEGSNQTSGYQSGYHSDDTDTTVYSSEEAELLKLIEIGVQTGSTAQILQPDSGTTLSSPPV
Outline: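 Recombinant human KDR (150 ng/ml) phosphorylated 500 nM Btn-Flt3 with 3 μM ATP in HEPES pH 7.5/MnCl2 buffer, 1% DMSO, 120 min at room temperature; EDTA stop with Eu-anti-P-Tyr/SA-XL665 detection, TR-FRET read. IC50 and pIC50 derived from compound concentrations spanning 10 μM to 0.1 nM.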

[2] = target: T2, Ba/F3-KDR-transfected cells (Homo sapiens, UniProt P35968, cells depend on it, form not given); test: Ba/F3-KDR (minus IL3 or plus IL3) cellular proliferation assay, Alamar Blue; assay type: cell-based; settings: minus IL3; 24 hours, Alamar Blue
T2 construct: BAF3-KDR (MIN IL3 Alamar Blue pIC50); other: minus IL3; 24 hours, Alamar Blue
Outline: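 Ba/F3-KDR cells, 20000 per well, exposed to compounds (10 μM to 0.1 nM) for 24 h at 37°C in RPMI/10% FBS, then Alamar Blue for 4 h; fluorescence ex 540/em 590 nm gives IC50 and pIC50. Counterscreen run with 10 ng/ml murine IL3.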

[3] = target: T3, Ba/F3-FGFR3-transfected cells (Homo sapiens, UniProt P22607, cells depend on it, form not given); test: Ba/F3-FGFR3 (minus IL3 or plus IL3) cellular proliferation assay, Alamar Blue; assay type: cell-based; settings: minus IL3; 24 hours, Alamar Blue
T3 construct: BAF3-FGFR3 (MIN IL3 Alamar Blue- pIC50); other: minus IL3; 24 hours, Alamar Blue
T3 sequence (P22607 whole entry, change not shown): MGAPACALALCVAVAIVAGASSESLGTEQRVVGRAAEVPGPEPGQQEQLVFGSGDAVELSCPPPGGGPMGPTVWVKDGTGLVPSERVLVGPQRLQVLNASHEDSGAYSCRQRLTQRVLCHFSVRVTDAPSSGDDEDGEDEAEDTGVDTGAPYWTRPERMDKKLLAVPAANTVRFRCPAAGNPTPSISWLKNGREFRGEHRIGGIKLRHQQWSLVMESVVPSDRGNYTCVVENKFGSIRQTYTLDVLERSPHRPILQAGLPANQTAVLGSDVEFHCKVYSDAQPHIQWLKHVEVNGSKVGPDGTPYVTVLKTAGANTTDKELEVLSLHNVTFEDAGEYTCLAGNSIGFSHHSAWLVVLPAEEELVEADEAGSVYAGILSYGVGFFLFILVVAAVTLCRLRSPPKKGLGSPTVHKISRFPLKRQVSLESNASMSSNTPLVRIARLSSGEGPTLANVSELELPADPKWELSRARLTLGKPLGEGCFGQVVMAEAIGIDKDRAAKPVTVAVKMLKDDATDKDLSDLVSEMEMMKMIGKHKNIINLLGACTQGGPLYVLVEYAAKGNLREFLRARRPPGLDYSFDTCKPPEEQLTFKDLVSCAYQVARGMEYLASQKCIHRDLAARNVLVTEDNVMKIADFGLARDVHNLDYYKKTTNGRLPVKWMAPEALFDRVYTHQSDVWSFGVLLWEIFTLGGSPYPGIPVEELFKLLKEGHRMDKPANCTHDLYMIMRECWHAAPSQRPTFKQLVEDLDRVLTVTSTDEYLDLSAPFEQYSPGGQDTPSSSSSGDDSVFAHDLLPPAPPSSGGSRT
Outline: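 Ba/F3-FGFR3 cells (20000 per well) in phenol red-free RPMI-1640 with 10% FBS were exposed to compound (10 μM to 0.1 nM) for 24 h at 37° C. Alamar Blue was then added for 4 h and fluorescence read (ex 540, em 590 nm) to give IC50/pIC50; the counterscreen was run with 10 ng/ml murine IL3.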

FGFR4 (h) = FGFR4 (h) (Homo sapiens, UniProt P22455); test: FGFR4 (enzymatic assay), TR-FRET; assay type: biochemical; settings: FGFR 4 pIC50, 5 μM ATP, 60 min; pIC50 = -log IC50 (M); average if tested multiple times
[4] = target: Ba/F3-FGFR4-transfected cells (Homo sapiens, UniProt P22455); test: Ba/F3-FGFR4 cellular proliferation assay, Alamar Blue; assay type: cell-based; settings: 24 hours
Chain of Ba/F3-FGFR4-transfected cells (P22455 whole entry, change not shown): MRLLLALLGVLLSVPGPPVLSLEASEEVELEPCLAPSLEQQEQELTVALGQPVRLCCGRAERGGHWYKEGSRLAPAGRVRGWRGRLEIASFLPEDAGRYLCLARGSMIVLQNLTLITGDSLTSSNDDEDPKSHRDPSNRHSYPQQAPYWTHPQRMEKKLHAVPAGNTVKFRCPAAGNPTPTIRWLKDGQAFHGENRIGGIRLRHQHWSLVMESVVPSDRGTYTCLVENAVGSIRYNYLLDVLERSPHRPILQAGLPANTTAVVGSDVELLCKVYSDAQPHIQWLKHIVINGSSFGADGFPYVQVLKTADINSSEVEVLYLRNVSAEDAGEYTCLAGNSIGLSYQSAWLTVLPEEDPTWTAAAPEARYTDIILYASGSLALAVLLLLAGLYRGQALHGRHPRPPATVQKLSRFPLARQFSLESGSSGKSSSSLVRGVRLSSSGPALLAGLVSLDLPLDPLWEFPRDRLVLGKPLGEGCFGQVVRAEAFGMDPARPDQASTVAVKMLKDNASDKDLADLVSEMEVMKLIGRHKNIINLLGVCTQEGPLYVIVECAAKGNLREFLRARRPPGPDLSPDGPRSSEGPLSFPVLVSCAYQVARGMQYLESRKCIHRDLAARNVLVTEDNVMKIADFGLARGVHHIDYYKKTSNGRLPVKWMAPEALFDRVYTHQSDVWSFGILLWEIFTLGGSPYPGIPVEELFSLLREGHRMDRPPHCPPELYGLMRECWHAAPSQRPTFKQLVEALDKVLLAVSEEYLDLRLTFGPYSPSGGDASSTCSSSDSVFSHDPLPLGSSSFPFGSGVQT
Outline: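 Ba/F3 cells transfected with human FGFR4, 20000 per well in phenol red-free RPMI-1640 with 10% FBS, exposed to compound (10 μM to 0.1 nM) for 24 h at 37 °C. Viability by Alamar Blue (resazurin), 4 h, fluorescence ex 540/em 590 nm; IC50 and pIC50 calculated.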

FGFR3 (h) = FGFR3 (h) (Homo sapiens, UniProt P22607); test: FGFR3 (enzymatic assay), TR-FRET; assay type: biochemical; settings: 60 min, pIC50 = -log IC50 (M), average if tested multiple times
FGFR2 (h) = FGFR2 (h) (Homo sapiens, UniProt P21802); test: FGFR2 (enzymatic assay), TR-FRET; assay type: biochemical; settings: 60 min, pIC50 = -log IC50 (M), average if tested multiple times
Chain of FGFR2 (h) (P21802 22-821): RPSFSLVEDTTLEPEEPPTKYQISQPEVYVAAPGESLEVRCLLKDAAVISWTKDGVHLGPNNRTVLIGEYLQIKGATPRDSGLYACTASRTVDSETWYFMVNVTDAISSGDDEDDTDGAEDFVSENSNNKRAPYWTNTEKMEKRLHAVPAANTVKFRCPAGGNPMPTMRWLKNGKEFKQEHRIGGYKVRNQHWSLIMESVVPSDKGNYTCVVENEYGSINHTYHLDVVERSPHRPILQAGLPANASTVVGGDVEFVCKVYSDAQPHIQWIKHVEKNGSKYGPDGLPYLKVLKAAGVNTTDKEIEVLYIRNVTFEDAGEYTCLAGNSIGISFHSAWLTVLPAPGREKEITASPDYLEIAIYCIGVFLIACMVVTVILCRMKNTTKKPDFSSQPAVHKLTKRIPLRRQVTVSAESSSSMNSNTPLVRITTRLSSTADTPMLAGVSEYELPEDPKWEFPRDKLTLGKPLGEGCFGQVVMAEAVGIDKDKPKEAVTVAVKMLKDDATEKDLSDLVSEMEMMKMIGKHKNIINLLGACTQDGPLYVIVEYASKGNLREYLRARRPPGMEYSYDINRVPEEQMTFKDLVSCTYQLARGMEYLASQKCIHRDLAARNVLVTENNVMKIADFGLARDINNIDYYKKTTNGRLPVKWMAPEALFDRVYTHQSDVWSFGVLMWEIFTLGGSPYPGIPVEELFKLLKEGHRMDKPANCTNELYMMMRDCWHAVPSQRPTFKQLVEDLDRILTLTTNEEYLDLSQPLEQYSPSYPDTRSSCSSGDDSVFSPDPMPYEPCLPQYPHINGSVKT

[5] = 3 μM ATP, read-out: VEGFR KDR pIC50 (converted)
[6] = 25 μM ATP, read-out: hFGFR 3 pIC50 (converted)
[7] = 0.4 μM ATP, read-out: FGFR 2 pIC50 (converted)

Row | Structure (SMILES) | BAF3-FGFR1 (MIN IL3 pIC50) [1] | IC50 (KDR (h); [5]) | BAF3-KDR (MIN IL3 Alamar Blue pIC50) [2] | BAF3-FGFR3 (MIN IL3 Alamar Blue- pIC50) [3] | IC50 (FGFR4 (h)) | BAF3-FGFR 4 (pIC50) [4] | IC50 (FGFR3 (h); [6]) | IC50 (FGFR2 (h); [7]) | IC50 (KDR (h); VEGFR KDR pIC50, 3 μM ATP) | IC50 (FGFR3 (h); hFGFR 3 pIC50, 25 μM ATP) | IC50 (FGFR2 (h); FGFR 2 pIC50, 0.4 μM ATP)
1 | COc1cc(OC)cc(N(CCCNCC(F)(F)F)c2ccc3ncc(-c4cnn(C)c4)cc3c2)c1 [Compound 5] | 5.79 | 2.45e-07 M | 5.18 | 5.67 | 9.12e-08 M | 5.5 | 2.29e-08 M | 3.16e-08 M | – | – | –
2 | COc1cc(OC)cc(N(Cc2nccn2S(=O)(=O)N(C)C)c2ccc3ncc(-c4ccncc4)cc3c2)c1 [Compound 58] | ~5.86 | 7.24e-07 M | <5 | 5.57 | 1.86e-07 M | <5 | 2.75e-08 M | 1.29e-08 M | – | – | –
3 | COc1cc(OC)cc(N(Cc2nccn2S(=O)(=O)N(C)C)c2ccc3ncc(-c4cccnc4)cc3c2)c1 [Compound 60] | 5.37 | > 1e-06 M | <5 | 5.22 | 2.51e-07 M | <5 | 3.16e-08 M | 1.95e-08 M | – | – | –
4 | COc1cc(OC)cc(N(Cc2nccn2S(=O)(=O)N(C)C)c2ccc3ncc(-c4cnn(C)c4)cc3c2)c1 [Compound 9] | 6.14 | 1.66e-07 M | <5 | 6.17 | 1.45e-07 M | 5.18 | 1.1e-08 M | 7.76e-09 M | – | – | –
5 | COc1cc(OC)cc(N(CC2CCN(c3nccc(OC)n3)C2)c2ccc3ncc(-c4cnn(C)c4)cc3c2)c1 (stereo not shown) [Compound 7] | <5 | > 1e-06 M | <5 | <5 | > 1e-06 M | <5 | 9.12e-07 M | > 1e-06 M | – | – | –

The next compounds have a lower IC50 (FGFR4 (h)) than those just listed; values first:

Row | BAF3-FGFR1 (MIN IL3 pIC50) [1] | IC50 (KDR (h); [5]) | BAF3-KDR (MIN IL3 Alamar Blue pIC50) [2] | BAF3-FGFR3 (MIN IL3 Alamar Blue- pIC50) [3] | IC50 (FGFR4 (h)) | BAF3-FGFR 4 (pIC50) [4] | IC50 (FGFR3 (h); [6]) | IC50 (FGFR2 (h); [7]) | IC50 (KDR (h); VEGFR KDR pIC50, 3 μM ATP) | IC50 (FGFR3 (h); hFGFR 3 pIC50, 25 μM ATP) | IC50 (FGFR2 (h); FGFR 2 pIC50, 0.4 μM ATP) | Structure (SMILES)
6 | 6.57 | 5.89e-07 M | <5 | 6.76 | 6.03e-08 M | 6.07 | 5.89e-09 M | 1.95e-08 M | – | – | – | COc1cc(OC)cc(N(CC(O)C(F)(F)F)c2ccc3ncc(-c4cnn(C)c4)cc3c2)c1 (single isomer, unassigned) [Compound 25]
7 | 7.55 | 1.02e-07 M | 5.49 | 7.57 | 5.37e-09 M | 6.79 | 3.39e-09 M | 2.57e-09 M | – | – | – | COc1cc(OC)cc(N(CCNC(C)C)c2ccc3ncc(-c4cn[nH]c4)cc3c2)c1 [Compound 21]
8 | 6.32 | – | 5.1 | 6.26 | 6.03e-08 M | 5.71 | – | – | 1e-07 M | 5.62e-09 M | 1.15e-08 M | COc1cc(OC)cc(N(CCCN2CCCO2)c2ccc3ncc(-c4cnn(C)c4)cc3c2)c1 [Compound 19]
9 | 7.24 | 2.88e-07 M | 5.02 | 7.62 | 3.16e-08 M | 7.17 | 7.94e-09 M | 1.45e-08 M | – | – | – | COc1cc(OC)cc(N(CC#Cc2nccn2C)c2ccc3ncc(-c4cnn(C)c4)cc3c2)c1 [Compound 48]
10 | 8.68 | 1.48e-08 M | 6.51 | ~8 | 2.63e-09 M | ~8.02 | 2.4e-09 M | 2.45e-09 M | – | – | – | CNCCN(c1ccc2ncc(-c3cnn(C)c3)cc2c1)c1c(F)c(OC)cc(OC)c1F [Compound 43]
11 | >8 | 8.91e-07 M | <5 | >8 | 3.72e-08 M | 8.21 | 1.35e-08 M | 1.55e-08 M | – | – | – | COc1cc(OC)cc(N(CC#Cc2nccc(OC)n2)c2ccc3ncc(-c4cnn(C)c4)cc3c2)c1 [Compound 16]
